The source of these data is PMC8667925, “New 1,2,4-oxadiazole derivatives with positive mGlu4 receptor modulation activity and antipsychotic-like properties” (Journal of Enzyme Inhibition and Medicinal Chemistry, 2021).

pEC50: −log10 of the molar value. “Also recorded” adds a separate entry of the source.

Experiment [1] concerns the target T1, mGlu4 receptor (Homo sapiens, UniProt Q14833).
T1 construct: mGlu4 receptor NM_000841, mGlu7 receptor NM_000844.2, and mGlu8 receptor NM_000845; expressed in transfected cells; host or cells: T-REx 293
Description: forskolin-stimulated cAMP assay, PAM mode (EC20 of L-Glu), T-REx 293 cells. It counts as cell-based. The note with it: for pEC50 / Emax / mGlu4 receptor PAM activity: PAM mode; for pEC50: EC20 (3 µM) L-Glu, T-REx 293 cells expressing human mGlu4 receptor; for pEC50 / Emax / Fold shift of L-Glu dose-response curve: SEM where given; for Emax: T-REx-293, read-out: GluMax; for Emax / mGlu4 receptor PAM activity: human mGlu4; for Fold shift of L-Glu dose-response curve: in the presence of 10 µM of compound. As for the experimental part: The activity of the compounds was assessed in vitro in a forskolin-stimulated cAMP assay in T-REx 293 cells expressing human mGlu4 receptors in the presence of an EC20 concentration of L-Glu; a PAM was identified if it potentiated cAMP inhibition by the Gi/o-dependent pathway of mGlu4 receptor activation; i.e. if it was able to produce a leftward shift in the potency of the endogenous agonist.
Determination of the intracellular cAMP through a homogeneous time-resolved fluorescence (HTRF) cAMP dynamic 2 kit from Cisbio (Codolet, France) was described previously by Chruścicka et al.[91]. Briefly, cells were grown in DMEM supplemented with 10% foetal bovine serum (FBS) (tetracycline free). Forty-eight hours before the experiments, mGlu receptor expression was induced by the addition of 0.75 µg/mL tetracycline. Twenty hours before the experiment, FBS and L-Glu were removed from the medium. Thereafter, the cells were scraped and centrifuged. A cell pellet was suspended in Hanks-HEPES (130 mM NaCl, 5.4 mM KCl, 1.8 mM CaCl2, 0.8 mM MgSO4, 0.9 mM NaH2PO4, 20 mM HEPES, and 3.25 mM glucose; pH 7.4). Then, the cell suspension was incubated in the presence of 10 µM forskolin (or 3 µM forskolin for mGlu7 receptor), the agonist L-glutamate and a compound for 5 min. Next, 10 µl of the cell suspension was mixed with 5 µl of cAMP-d2 conjugate and 5 µL of anti-cAMP cryptate conjugate. After 1 h of incubation at rt, the fluorescence at 620 nm and 665 nm was read (Tecan Infinite M1000). The results were calculated as the 665 nm/620 nm ratio multiplied by 10^4. Each sample was prepared in triplicate.
Statistical calculations were performed using GraphPad Prism 5.04 software (GraphPad Software, La Jolla, CA, USA). The curves were fitted to a 3-parametric logistic equation, allowing for the determination of EC50 values. Each data point was analysed in triplicate.
For orientation: Cyclic AMP is a second messenger, typically raised through Gs and lowered through Gi signalling.

Experiment [2] relates to Albino Swiss mice. Description: modified stress-induced hyperthermia (SIH) in singly housed mice. Format: in vivo. The protocol:
(§1) The compounds were dissolved in a small amount of 100% EtOH and then adjusted with 20% cyclodextrin, and the pH was adjusted to 6.0. The investigated compounds were administered intraperitoneally (i.p.) 60 min before the behavioural test. Control drugs i.e. diazepam, clozapine and imipramine (Sigma–Aldrich, St. Louis, USA), were administered i.p. 60 min before the behavioural test. Cyclodextrin (20%) was used as a vehicle. All solutions were prepared immediately prior to the experiments and were administered at a constant volume of 10 ml/kg.
The procedure for modified stress-induced hyperthermia was adapted from Van der Heyden[93] and based on the procedure introduced by Borsini[94]. Each experimental group consisted of eight to ten animals. The animals were housed individually in a 26 × 21 × 14 cm Macolon cage 24 h before testing. For this assay, the body temperature was measured for each mouse at t = 0 min (T1) and t = +15 min (T2). Albino Swiss mice were placed into a new cage immediately following T1, with the difference in temperature (T2−T1) used as the measure of stress-induced hyperthermia. […] A comparison between T1 in vehicle-treated mice and those administered the test compound was used to determine whether the agent affects body temperature alone. Diazepam (5 mg/kg) was used as the positive control. The rectal temperature was measured to the nearest 0.1 °C with a Physitemp Theralert thermometer, TH-5, Clifton NJ, USA, with the temperature sensor for mice, Type T, Copper-Constantan Thermocouple, Braintree Scientific Inc. The lubricated thermistor probe (2 mm diameter) was inserted 20 mm into the rectum. The mouse was held at the base of the tail during this determination, and the thermistor probe was left in place until a constant reading was obtained for 15 s. The effects of the investigated compounds on the SIH response were investigated after administration of the compounds at doses of 5, 10 and 20 mg/kg.

Experiment [3] concerns Albino Swiss mice. As to the kind of experiment: DOI-induced head twitch test (HTR). It counts as in vivo. To be noted: over the doses 2.5, 5 and 10 mg/kg i.p.; DOI 2.5 mg/kg i.p. The protocol: as §1
The experiments were performed according to the procedure described in our previous studies[75]^,[80]. Briefly, to habituate mice to the experimental environment, each animal was transferred to a 12 cm (diameter) × 20 cm (height) glass cage lined with sawdust 30 min before treatment. Test compounds were administered intraperitoneally (i.p.) at doses of 2.5, 5, and 10 mg/kg body weight 60 min before the test was performed. The head twitch response (HTR) in mice was induced by DOI (2.5 mg/kg, i.p.). Immediately after treatment, the number of head twitches was counted during a 20 min session. Haloperidol and clozapine were used as the reference compounds at active doses of 0.2 and 5 mg/kg, respectively.

T1 sequence (Q14833 33-912): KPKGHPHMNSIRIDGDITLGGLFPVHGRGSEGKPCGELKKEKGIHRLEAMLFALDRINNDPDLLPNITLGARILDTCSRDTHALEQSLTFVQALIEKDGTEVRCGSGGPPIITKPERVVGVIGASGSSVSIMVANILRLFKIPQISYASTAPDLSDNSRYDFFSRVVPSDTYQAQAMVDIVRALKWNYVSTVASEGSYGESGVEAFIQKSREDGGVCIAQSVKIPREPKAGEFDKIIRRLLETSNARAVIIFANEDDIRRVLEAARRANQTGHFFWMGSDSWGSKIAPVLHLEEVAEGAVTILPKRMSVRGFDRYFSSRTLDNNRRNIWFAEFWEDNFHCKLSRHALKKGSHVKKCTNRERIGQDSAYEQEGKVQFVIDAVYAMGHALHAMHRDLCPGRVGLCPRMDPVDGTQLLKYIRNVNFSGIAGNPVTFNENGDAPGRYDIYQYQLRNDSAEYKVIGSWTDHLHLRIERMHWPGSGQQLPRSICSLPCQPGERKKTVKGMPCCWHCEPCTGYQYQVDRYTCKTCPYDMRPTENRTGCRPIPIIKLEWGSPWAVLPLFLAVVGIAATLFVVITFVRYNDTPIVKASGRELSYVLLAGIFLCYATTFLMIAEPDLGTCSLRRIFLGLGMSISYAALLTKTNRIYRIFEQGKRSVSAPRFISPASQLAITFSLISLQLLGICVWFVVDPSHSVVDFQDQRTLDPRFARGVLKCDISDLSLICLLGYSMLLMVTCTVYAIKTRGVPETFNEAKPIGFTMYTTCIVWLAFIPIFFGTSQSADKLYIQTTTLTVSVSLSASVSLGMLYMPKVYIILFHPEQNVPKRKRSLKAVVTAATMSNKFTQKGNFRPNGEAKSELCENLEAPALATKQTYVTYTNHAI

For `O=C(Nc1ccc(-c2noc(-c3ccccc3Cl)n2)cc1)c1ccccn1` [Compound 17d], in experiment [1], the pEC50 (in general, the EC50 on a negative log10 scale, so that one unit is a factor of ten) was 5.43; the Emax stood at 116%; the “Fold shift of L-Glu dose-response curve” value is listed as 1.8.
For `COc1cc(NC(=O)c2cccc(Cl)n2)ccc1-c1noc(-c2ccccc2Cl)n1` [Compound 41] the same measures were 5.72, 115% and 4.1.
In the case of `O=C(Nc1ccc(-c2noc(-c3ccccc3Cl)n2)c(Cl)c1)c1cccc(F)n1` [Compound 50], the “mGlu4 receptor PAM activity” value in experiment [1] is “unable to modulate mGlu4 receptor activity”.
On the same count and under the same terms, the same measure for `COc1ccc(-c2nc(-c3ccc(NC(=O)c4cccs4)cc3)no2)cc1` [Compound 17c]: “not tolerated”.
`COc1cc(NC(=O)c2ccccn2)ccc1-c1noc(-c2cccc(Cl)c2)n1` [Compound 35]: in experiment [1], the pEC50 is 5.28, the Emax came out at 145% and the “Fold shift of L-Glu dose-response curve” value is 2.2.
For `COc1cc(NC(=O)c2ccncn2)ccc1-c1noc(-c2ccccc2Cl)n1` [Compound 45], in that order: 5.51, 118% and 3.1.
On to `COc1cc(NC(=O)c2ncc(Cl)cc2F)ccc1-c1noc(-c2ccccc2Cl)n1` [Compound 40], for which the “mGlu4 receptor PAM activity” value in experiment [1] was “did not potentiate cAMP inhibition”.
On to `O=C(Nc1ccc(-c2noc(-c3ccccc3)n2)c(F)c1)c1ccccn1` [Compound 55], for which, in experiment [1], the pEC50 is 5.59, the Emax was 127% and the “Fold shift of L-Glu dose-response curve” value is recorded as 3.0.
For `COc1cc(NC(=O)c2ccccn2)ccc1-c1noc(-c2ccc(Cl)cc2)n1` [Compound 36], in that order: 5.70, 157% and 2.0.
For `COc1cc(NC(=O)c2cccc(F)n2)ccc1-c1noc(-c2ccccc2F)n1` [Compound 47] the same measures were 6.05, 121% and 6.9.
For `COc1cc(NC(=O)c2ccccn2)ccc1-c1noc(-c2ccc(F)cc2Cl)n1` [Compound 38] the same measures were 5.70, 124% and 4.6.
`COc1ccc(Cl)c(C(=O)Nc2ccc(-c3noc(-c4ccccc4Cl)n3)c(OC)c2)n1` [Compound 42]: the “mGlu4 receptor PAM activity” value in experiment [1] is on record as “did not potentiate cAMP inhibition”. Besides, the “effect on SIH response” value in experiment [2] (over the doses 5, 10 and 20 mg/kg i.p.) is given as “None of the administered doses of compound 42 statistically affected the SIH; also recorded: failed to alter SIH”. Besides, in experiment [3], the “effect on DOI-induced HTR” value was “failed to alter SIH and block DOI-induced HTR”.
Turning to `O=C(Nc1ccc(-c2noc(-c3ccccc3Cl)n2)c(Cl)c1)c1cccc(Cl)n1` [Compound 51], in experiment [1], the “mGlu4 receptor PAM activity” value is “unable to modulate mGlu4 receptor activity”.
With `CN1C(=O)CN=C(c2ccccc2)c2cc(Cl)ccc21` [diazepam, reference compound], the “effect on SIH response” value in experiment [2] (5 mg/kg i.p., 60 min before test) is given as “significantly reduced SIH”.
`Cc1cc(NC(=O)c2ccccn2)ccc1-c1noc(-c2ccccc2)n1` [Compound 61]: in experiment [1], the pEC50 is 5.78, the Emax was 128% and the “Fold shift of L-Glu dose-response curve” value is on record as 5.1.
For `COc1cc(NC(=O)c2nccs2)ccc1-c1noc(-c2ccccc2Cl)n1` [Compound 46], in that order: 5.66, 126% and 3.6.
For `COc1cc(NC(=O)c2ccccn2)ccc1-c1noc(-c2ccccc2)n1` [Compound 33] the same measures were 5.74, 130% and 5.3.
For `O=C(Nc1ccc(-c2noc(-c3ccccc3)n2)c(C(F)(F)F)c1)c1ccccn1` [Compound 59], in that order: 6.13, 150% and 7.6.
Consider `COc1ccccc1-c1nc(-c2ccc(NC(=O)c3ccccn3)cc2Cl)no1` [Compound 54], for which, in experiment [1], the pEC50 is 6.12, the Emax came to 111% and the “Fold shift of L-Glu dose-response curve” value was found to be 2.2.
Regarding `COc1cc(NC(=O)c2nc(Cl)ccc2Cl)ccc1-c1noc(-c2ccccc2F)n1` [Compound 48], in experiment [1], the “mGlu4 receptor PAM activity” value is on record as “did not potentiate cAMP inhibition”.
On to `O=C(Nc1ccc(-c2noc(-c3ccc(F)cc3Cl)n2)c(Cl)c1)c1ccccn1` [Compound 53], for which, in experiment [1], the pEC50 was 5.87, the Emax stood at 119% and the “Fold shift of L-Glu dose-response curve” value was determined as 2.1.
Turning to `COc1cc(NC(=O)c2cc(F)cc(F)n2)ccc1-c1noc(-c2ccccc2Cl)n1` [Compound 43], in experiment [1], the pEC50 was 5.60, the Emax was determined as 134% and the “Fold shift of L-Glu dose-response curve” value is 5.0.
